Source: ChEMBL document CHEMBL1201862, “PubChem BioAssay data set” (2004)
The source made the active and inactive calls.

Assays:
[1] = molecular target: T1, Calpain-2 catalytic subunit (Sus scrofa, UniProt P43367); experiment: m-calpain protease blockers, concentration series – biochemical, fluorogenic peptide substrate, dose response (AID 1420); assay type: functional
T1 sequence (P43367 whole entry): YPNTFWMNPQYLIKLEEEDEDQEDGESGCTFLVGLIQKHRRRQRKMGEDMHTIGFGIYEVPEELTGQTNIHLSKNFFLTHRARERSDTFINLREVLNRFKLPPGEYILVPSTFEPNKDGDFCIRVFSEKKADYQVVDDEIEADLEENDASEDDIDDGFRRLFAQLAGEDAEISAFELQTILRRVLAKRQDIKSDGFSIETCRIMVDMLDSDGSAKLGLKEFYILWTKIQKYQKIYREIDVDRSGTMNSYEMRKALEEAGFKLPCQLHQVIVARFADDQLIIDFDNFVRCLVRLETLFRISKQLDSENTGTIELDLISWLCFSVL

[2] = Luminescence Cell-Based Dose Response HTS to Identify Activators of Luciferase Translation or Activity in H4 […] Cells. [Related pubchem assays: 1829 (Project Summary), 1814 (Primary HTS)]; assay type: functional
[3] = Luminescence Cell-Based Dose Confirmation HTS to Identify Activators of 5'UTR Stem-Loop Driven Alpha-Synuclein mRNA Translation in H4 Neuroglioblastoma Cells. [Related pubchem assays: 1829 (Project Summary), 1814 (Primary HTS)]; assay type: functional
H4 = experiment: Luminescence Cell-Based Dose Response HTS to Identify Activators of 5'UTR Stem-Loop Driven Prion Protein mRNA Translation in H4 Neuroglioblastoma Cells. [Related pubchem assays: 1829 (Project Summary), 1814 (Primary HTS)]; assay type: functional; settings: Homo sapiens
[4] = molecular target: T2, Polyadenylate-binding protein 1 (Homo sapiens, UniProt P11940); experiment: MLLE binding blockers, Cy5 peptide tracer – biochemical, fluorescence polarization, Cy5-PAM2 peptide, secondary, miRNA deadenylation inhibitor project, dose response (AID 602260); assay type: functional; settings: read-out: IC50_Mean
[5] = molecular target: T2, Polyadenylate-binding protein 1; experiment: MLLE domain peptide-binding blockers, IC50 – biochemical, fluorescence polarization, FITC-PAM2 peptide, dose response (AID 602259); assay type: functional; settings: read-out: IC50_Mean
Cytochrome P450 2C9 = Cytochrome P450 2C9 (Homo sapiens, UniProt P11712)
[6] = molecular target: T3, Corticotropin-releasing factor receptor 2/Corticotropin-releasing factor-binding protein (Homo sapiens, UniProt P24387+Q13324); experiment: Dose Response confirmation of uHTS hits for small molecule antagonists of the CRF-binding protein and CRF-R2 receptor complex.; assay type: functional; settings: read-out: IC50_Mean
T3 sequence (Q13324 whole entry): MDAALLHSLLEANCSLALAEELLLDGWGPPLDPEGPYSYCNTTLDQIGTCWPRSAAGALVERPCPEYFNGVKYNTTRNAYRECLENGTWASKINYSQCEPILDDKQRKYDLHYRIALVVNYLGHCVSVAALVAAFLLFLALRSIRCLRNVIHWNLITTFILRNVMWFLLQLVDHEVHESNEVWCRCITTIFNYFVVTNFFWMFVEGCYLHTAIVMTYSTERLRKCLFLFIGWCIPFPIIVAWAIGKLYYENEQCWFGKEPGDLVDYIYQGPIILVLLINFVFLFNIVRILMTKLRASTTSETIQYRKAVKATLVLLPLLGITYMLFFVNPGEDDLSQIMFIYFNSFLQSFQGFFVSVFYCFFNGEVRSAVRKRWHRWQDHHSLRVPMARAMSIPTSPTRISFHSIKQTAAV
T3 sequence (P24387 whole entry): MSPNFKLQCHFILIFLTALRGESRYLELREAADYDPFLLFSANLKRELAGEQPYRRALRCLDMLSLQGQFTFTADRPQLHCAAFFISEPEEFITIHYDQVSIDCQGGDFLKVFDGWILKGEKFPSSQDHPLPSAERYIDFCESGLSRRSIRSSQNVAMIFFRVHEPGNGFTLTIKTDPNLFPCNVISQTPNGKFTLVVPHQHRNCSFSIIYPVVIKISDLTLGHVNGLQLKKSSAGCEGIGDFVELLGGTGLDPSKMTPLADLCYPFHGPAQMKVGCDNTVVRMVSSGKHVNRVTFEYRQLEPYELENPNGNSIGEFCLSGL

[7] = molecular target: T3, Corticotropin-releasing factor receptor 2/Corticotropin-releasing factor-binding protein; experiment: activators of CRF receptor 2 with binding protein – uHTS hits, confirmation (AID 602473); assay type: functional; settings: read-out: EC50_Mean
Cytochrome P450 2C19 = Cytochrome P450 2C19 (Homo sapiens, UniProt P33261); experiment: Cytochrome panel assay with activity outcomes. Panel member name: p450-cyp2c19 Compounds with AC50 equal or less than 10 uM are considered active; assay type: functional; settings: read-out: AC50
[8] = non-specific 3'UTR reporter inhibition in Clone20-Shn3RL – cell-based, Renilla luciferase, cherry-picked, counter-screen for Shn3 inhibitor project, dose response (AID 624133); assay type: functional
[9] = reduction of Shn3 3'UTR-driven luciferase in osteoblasts – cell-based, Clone20 osteoblasts, firefly luciferase, cherry-picked, dose response (AID 624132); assay type: functional;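 note: firefly luciferase luminescence from reporter carrying the Shn3 3'UTR in osteoblasts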
[10] = molecular target: T4, Heat shock factor protein 1 (Mus musculus, UniProt P38532); experiment: decrease of HSF1-responsive luciferase luminescence – cell-based, NIH3T3, dose retest, confirmation (AID 2382); assay type: functional;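 note: NIH3T3 fibroblasts with HSF1-driven luciferase reporter stressed by proteasome inhibitor MG132; luminescence from HSF1-driven luciferase expression after 8 hours of MG132 stress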
T4 sequence (P38532 whole entry): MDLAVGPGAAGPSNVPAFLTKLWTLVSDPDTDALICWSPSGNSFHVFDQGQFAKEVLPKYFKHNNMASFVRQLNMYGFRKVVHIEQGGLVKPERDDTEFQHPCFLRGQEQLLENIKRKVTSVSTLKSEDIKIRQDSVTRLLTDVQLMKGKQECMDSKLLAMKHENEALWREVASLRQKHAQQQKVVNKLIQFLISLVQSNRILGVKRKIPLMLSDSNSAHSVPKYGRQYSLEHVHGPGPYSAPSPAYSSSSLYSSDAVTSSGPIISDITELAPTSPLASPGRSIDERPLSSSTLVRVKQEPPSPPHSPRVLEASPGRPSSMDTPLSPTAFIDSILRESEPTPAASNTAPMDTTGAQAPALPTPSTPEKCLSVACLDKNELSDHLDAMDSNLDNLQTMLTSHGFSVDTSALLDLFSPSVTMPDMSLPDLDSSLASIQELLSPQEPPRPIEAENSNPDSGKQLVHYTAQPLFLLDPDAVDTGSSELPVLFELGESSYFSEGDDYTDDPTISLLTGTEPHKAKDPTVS

[11] = NIH3T3 cell viability loss – ATP luminescence, mouse fibroblasts, counter-screen, dose response (AID 2010); assay type: functional, cell-based;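 note: cells exposed to compound for about 90 hours before reading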
Streptokinase A = molecular target: T5, Streptokinase A (Streptococcus pyogenes serotype M1, UniProt P10520); experiment: viability-normalized secreted streptokinase activity reduction – plasminogen activation absorbance, OD405, dose response (AID 1914); assay type: functional, Streptococcus pyogenes M1 GAS;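 note: secreted streptokinase activity via plasminogen activation per viability signal from cell pellet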
T5 sequence (P10520 whole entry): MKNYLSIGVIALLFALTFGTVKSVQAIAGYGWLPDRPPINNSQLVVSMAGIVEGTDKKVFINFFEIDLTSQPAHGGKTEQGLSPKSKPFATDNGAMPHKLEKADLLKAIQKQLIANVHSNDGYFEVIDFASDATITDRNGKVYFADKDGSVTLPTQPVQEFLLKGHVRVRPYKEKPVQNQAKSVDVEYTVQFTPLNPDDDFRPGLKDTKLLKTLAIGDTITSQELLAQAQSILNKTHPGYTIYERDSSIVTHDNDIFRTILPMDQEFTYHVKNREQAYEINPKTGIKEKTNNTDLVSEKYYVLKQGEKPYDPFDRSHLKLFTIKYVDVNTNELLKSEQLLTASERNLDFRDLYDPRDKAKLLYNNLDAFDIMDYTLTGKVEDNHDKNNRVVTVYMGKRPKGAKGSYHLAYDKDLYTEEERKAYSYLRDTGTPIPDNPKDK

Paired box protein Pax-8 = Paired box protein Pax-8 (Homo sapiens, UniProt Q06710); experiment: PAX8 transcriptional activity inhibition in RMG-I – RMG-I cells, luciferase, cherry-pick, dose response (AID 687027); assay type: functional, cell-based;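 note: luciferase reporter driven by Pax8 target thyroperoxidase promoter measured by SteadyGlo luminescence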
[12] = loss of viability in HepG2 cells – cell-based, CellTiter-Glo, cherry-picked, cytotoxicity control for Shn3 inhibitor project, dose response (AID 624134); assay type: functional
[13] = test system: Streptococcus sp. 'group A'; experiment: Streptococcus pyogenes SK(-)GAS viability under kanamycin – luminescence, BacTiterGlo, confirmation, counter-screen for streptokinase expression inhibitor project, dose response (AID 1900); assay type: functional, organism-based
[14] = Trypanosoma cruzi growth suppression in host cells – NIH3T3 host cells, beta-gal luminescence, confirmation (AID 2044); assay type: functional, cell-based;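 note: intracellular parasites grown in NIH/3T3 mouse fibroblasts as host cells; luminescent beta-galactosidase reporter signal from transgenic T. cruzi replicating inside host cells; inhibitors lower the luminescence signal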
Streptococcus = experiment: GAS UMAA2166 growth inhibition – luminescence, BacTiterGlo, counter-screen for streptokinase expression inhibitor project, dose response (AID 1915); assay type: functional, organism-based;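 note: potency for reduction of bacterial viability or growth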

T2 sequence (P11940 whole entry, the tested form may be a part): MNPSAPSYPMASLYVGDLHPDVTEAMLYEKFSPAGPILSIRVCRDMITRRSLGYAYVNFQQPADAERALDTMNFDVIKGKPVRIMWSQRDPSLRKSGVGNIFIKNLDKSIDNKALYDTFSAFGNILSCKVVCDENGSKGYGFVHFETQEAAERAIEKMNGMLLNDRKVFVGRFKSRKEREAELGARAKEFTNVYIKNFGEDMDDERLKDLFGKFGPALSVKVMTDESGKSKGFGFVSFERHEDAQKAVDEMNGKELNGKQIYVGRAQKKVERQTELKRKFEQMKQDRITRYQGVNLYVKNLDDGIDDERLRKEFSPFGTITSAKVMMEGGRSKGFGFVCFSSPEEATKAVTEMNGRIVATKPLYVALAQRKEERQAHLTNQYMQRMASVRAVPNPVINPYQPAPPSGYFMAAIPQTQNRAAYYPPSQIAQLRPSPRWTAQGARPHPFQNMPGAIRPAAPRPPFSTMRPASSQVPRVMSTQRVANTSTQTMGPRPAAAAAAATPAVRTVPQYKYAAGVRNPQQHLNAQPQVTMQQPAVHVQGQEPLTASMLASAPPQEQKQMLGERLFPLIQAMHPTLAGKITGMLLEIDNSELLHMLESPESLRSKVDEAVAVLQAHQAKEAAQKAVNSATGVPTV
Cytochrome P450 2C9, sequence (P11712 whole entry): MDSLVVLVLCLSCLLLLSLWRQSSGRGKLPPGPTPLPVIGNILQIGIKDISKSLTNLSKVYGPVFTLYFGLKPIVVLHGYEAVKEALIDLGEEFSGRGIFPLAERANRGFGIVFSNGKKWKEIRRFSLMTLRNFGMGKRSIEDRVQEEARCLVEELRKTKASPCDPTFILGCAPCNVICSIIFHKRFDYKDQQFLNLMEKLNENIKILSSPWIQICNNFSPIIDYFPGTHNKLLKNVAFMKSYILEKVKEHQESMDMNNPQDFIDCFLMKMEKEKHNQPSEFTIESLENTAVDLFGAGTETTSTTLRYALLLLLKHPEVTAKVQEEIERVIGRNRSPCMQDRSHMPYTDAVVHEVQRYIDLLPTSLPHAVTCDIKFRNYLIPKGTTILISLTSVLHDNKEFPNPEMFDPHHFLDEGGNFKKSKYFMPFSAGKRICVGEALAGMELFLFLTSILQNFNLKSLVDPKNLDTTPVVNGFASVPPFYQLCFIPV
Paired box protein Pax-8, sequence (Q06710 whole entry): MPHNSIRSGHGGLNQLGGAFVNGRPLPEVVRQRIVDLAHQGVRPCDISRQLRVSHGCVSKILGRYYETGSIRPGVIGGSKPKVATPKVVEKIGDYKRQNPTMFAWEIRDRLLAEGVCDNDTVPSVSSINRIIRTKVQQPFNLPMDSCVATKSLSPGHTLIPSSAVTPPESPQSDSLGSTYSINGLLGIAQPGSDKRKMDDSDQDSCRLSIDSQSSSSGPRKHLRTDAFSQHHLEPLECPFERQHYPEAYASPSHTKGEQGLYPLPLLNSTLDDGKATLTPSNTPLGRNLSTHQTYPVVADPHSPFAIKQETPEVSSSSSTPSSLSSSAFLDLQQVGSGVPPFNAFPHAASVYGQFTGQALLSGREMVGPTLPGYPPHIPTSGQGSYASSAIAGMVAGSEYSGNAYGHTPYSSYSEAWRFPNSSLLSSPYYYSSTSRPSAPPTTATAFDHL
Cytochrome P450 2C19, sequence (P33261 whole entry): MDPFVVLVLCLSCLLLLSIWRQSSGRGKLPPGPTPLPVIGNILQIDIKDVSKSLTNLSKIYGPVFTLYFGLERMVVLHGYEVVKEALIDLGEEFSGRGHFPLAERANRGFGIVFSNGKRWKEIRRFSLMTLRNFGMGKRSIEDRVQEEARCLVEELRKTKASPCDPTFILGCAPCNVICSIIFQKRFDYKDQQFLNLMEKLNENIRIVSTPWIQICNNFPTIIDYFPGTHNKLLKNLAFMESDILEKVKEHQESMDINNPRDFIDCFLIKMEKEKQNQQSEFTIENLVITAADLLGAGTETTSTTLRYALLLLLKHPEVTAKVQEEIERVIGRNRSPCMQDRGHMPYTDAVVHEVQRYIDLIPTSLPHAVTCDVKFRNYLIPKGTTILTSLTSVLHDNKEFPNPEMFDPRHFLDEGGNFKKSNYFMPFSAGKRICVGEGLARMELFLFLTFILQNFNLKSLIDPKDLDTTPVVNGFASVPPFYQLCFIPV

Row | Structure (SMILES) | EC50 [2] | EC50 [3] | EC50 (H4) | IC50 [4] | IC50 [5] | also measured
1 | CCn1c(SCc2ccc(F)cc2)nnc1C1CCN(S(=O)(=O)c2ccc(OC)cc2)CC1 | – | – | – | – | – | IC50 [1]: 26.2 µM (not active)
2 | COc1ccc(NC2CC(=O)N(C(C)C)C2=O)cc1 (stereo not given) | 18.8 µM (active) | 5.94 µM (active) | > 120 µM (not active) | – | – | –
3 | COc1ccc(OC)c(NC(=O)c2ccc3c(=O)n(CCc4ccccc4)c(=S)[nH]c3c2)c1 | – | – | – | – | – | IC50 [1]: 13 µM (not active)
4 | COc1ccc(Cc2nnc(NC(=O)C3CCCO3)s2)cc1OC (stereo not given) | – | – | – | > 66 µM (inactive) | > 66 µM (inactive) | –
5 | CCOC(=O)Cc1csc(NC(=S)NC(=O)c2ccccc2Br)n1 | – | – | – | > 66 µM (inactive) | > 66 µM (inactive) | –
6 | Cc1sc(NC(=O)CCCC(=O)O)c(C(N)=O)c1-c1ccccc1 | – | – | – | > 66 µM (inactive) | > 66 µM (inactive) | –
7 | Cc1cccc(NC(=O)c2cc(-c3ccc(C)s3)nc3ccccc23)n1 | > 60 µM (not active) | > 120 µM (not active) | 9.88 µM (active) | – | – | –
8 | COc1ccc(CNC(=O)c2ccc(C(C)C)cc2)cc1 | 0.16 µM (inconclusive) | 53.5 µM (active) | 80.9 µM (active) | – | – | –
9 | Fc1ccccc1C1CCN(Cc2nc(CC3CC3)no2)C1 (stereo not given) | 17.2 µM (active) | 15 µM (active) | 15.4 µM (active) | – | – | –
10 | COC(=O)c1cn(NC(=O)c2ccc(F)cc2)c(=O)c2ccccc12 | – | – | – | – | – | AC50 (Cytochrome P450 2C9): 39.8 µM (inconclusive); IC50 [6]: > 47.1 µM (inactive); EC50 [7]: > 53 µM (inactive); AC50 (Cytochrome P450 2C19): 17.8 µM (inconclusive)
11 | COc1cccc(C(=O)Nc2nc(O)c3c(n2)CCCC3)c1 | > 120 µM (not active) | 14.5 µM (active) | > 120 µM (not active) | – | – | –
12 | COC(=O)CCCC1=CC2=C(c3ccccc3)C(=O)C(C)(OC(=O)C3CCCC3)C(=O)C2=CN1CCN1CCOCC1 (stereo not given) | – | – | – | > 66 µM (inactive) | > 66 µM (inactive) | –
13 | Cc1ccc(C)c(N2CCN(C(=O)CCCCCn3c(=S)[nH]c4ccc(N5CCOCC5)cc4c3=O)CC2)c1 | – | – | – | – | – | AC50 [8]: 3.48 µM (active); AC50 [9]: 1.99 µM (active); EC50 [10]: 5.28 µM (active); EC50 [11]: 16.5 µM (active); EC50 (Streptokinase A): > 150 µM (not active); AC50 (Paired box protein Pax-8): 5.97 µM (active); AC50 [12]: 5.02 µM (active); EC50 [13]: 6.52 µM (active); EC50 [14]: 0.348 µM (active); EC50 (Streptococcus): 140 µM (active)
14 | Cc1cc2cc(CNC(=O)c3ccc(S(=O)(=O)N4CCOCC4)cc3)ccc2[nH]1 | – | – | – | > 66 µM (inactive) | > 66 µM (inactive) | –
15 | Cc1ccc(-n2ncc(Cl)c2C(=O)NCc2ccccc2)cc1 | 4.06 µM (active) | 3.28 µM (active) | 5.76 µM (active) | – | – | –
16 | O=C(NC(=S)Nc1ccc(S(=O)(=O)N2CCCCC2)cc1)c1cccs1 | – | – | – | > 66 µM (inactive) | > 66 µM (inactive) | –
17 | Cc1cc(C)nc(Nc2nc(=O)c3ccccc3s2)n1 | – | – | – | > 66 µM (inactive) | > 66 µM (inactive) | –
18 | COC(=O)c1cn(C(=O)/C=C/c2ccc(OC)c(OC)c2)c2ccccc12 | 32.1 µM (active) | 20.2 µM (active) | > 120 µM (not active) | – | – | –
19 | O=C(NC(=S)Nc1ccc(Cc2ccncc2)cc1)c1ccccc1Cl | – | – | – | > 66 µM (inactive) | > 66 µM (inactive) | –
20 | COc1ccc2oc(-c3ccncc3)cc(=O)c2c1 | – | – | – | > 66 µM (inactive) | > 66 µM (inactive) | –
21 | CC(C)C(NC(=O)c1ccc(Cl)cc1Cl)C(=O)N1CCN(S(=O)(=O)c2ccccc2)CC1 (stereo not given) | – | – | – | – | – | AC50 [8]: 21 µM (active); AC50 [9]: 48.5 µM (active)
22 | CCCCOc1ccc(N2C(=O)C(C)CNC2=S)cc1 (stereo not given) | – | – | – | > 66 µM (inactive) | 41.1 µM (inactive) | –
23 | Cc1oc(/N=C/c2ccc3c(c2)OCO3)c(C#N)c1C | 38.1 µM (active) | > 120 µM (not active) | > 120 µM (not active) | – | – | –
24 | Cc1nc2ccccc2c(=O)n1/N=C/c1cn(-c2ccccc2)nc1-c1cccs1 | 14.8 µM (active) | 5.11 µM (active) | 6.75 µM (active) | – | – | –
